Patent US20240299481A1, “STEPHANIA CEPHARANTHA-DERIVED ALKALOID-CONTAINING PREPARATION” (JAPAN AS REPRESENTED BY DIRECTOR-GENERAL OF NATIONAL …, priority 2021, published 2024)

Tested on: novel coronavirus mutant strain (alpha mutant strain)
Format: cell-based, SARS-COV-2

| Compound | antiviral effect (number of viral RNA with increasing addition concentration) | antiviral effect compared with the preparation / other alkaloids |
| --- | --- | --- |
| COc1cc2c3cc1Oc1c(OC)c(OC)cc4c1[C@@H](Cc1ccc(O)c(c1)Oc1ccc(cc1)C[C@@H]3N(C)CC2)N(C)CC4 [Berbamine] | showed antiviral effects | weak antiviral effect |
| COc1ccc2cc1Oc1ccc(cc1)C[C@H]1c3c(cc4c(c3Oc3cc5c(cc3OC)CCN(C)[C@@H]5C2)OCO4)CCN1C [Cepharanthine] | showed antiviral effects | comparable to the Stephania cepharantha-derived alkaloid-containing preparation |
| COc1cc2c3c(c1OC)Oc1ccc(cc1)C[C@@H]1c4c(cc(OC)c(OC)c4Oc4ccc(cc4)C[C@H]3N(C)CC2)CCN1C [Cycleanine] | showed antiviral effects | comparable to the Stephania cepharantha-derived alkaloid-containing preparation |
| COc1ccc2cc1Oc1ccc(cc1)C[C@H]1c3cc(c(OC)cc3CCN1C)Oc1c(OC)c(OC)cc3c1[C@@H](C2)N(C)CC3 [Isotetrandrine] | showed antiviral effects | comparable to the Stephania cepharantha-derived alkaloid-containing preparation |
